This passage reports IC50 results from patent publication US11814364B2, “Pyridine N-oxide derivatives useful as factor XIa inhibitors” (Janssen Pharmaceutica NV, priority 2021, dated 2023).

For the assay, the target named is human plasma kallikrein (Homo sapiens, UniProt P03952). Nature of the assay: Kallikrein inhibition FLINT assay with quenched AMC peptide substrate Z-Gly-Pro-Arg-AMC (end point EP or kinetic KIN reads). It counts as biochemical. The following applies: kinetic reads at 5 min intervals over 30 min; read-out: Kallikrein (KIN) IC50. On the procedure: A fluorescence intensity (FLINT) based assay was used to monitor inhibition of human plasma kallikrein.
Chain of human plasma kallikrein (P03952 391-638 limits assumed): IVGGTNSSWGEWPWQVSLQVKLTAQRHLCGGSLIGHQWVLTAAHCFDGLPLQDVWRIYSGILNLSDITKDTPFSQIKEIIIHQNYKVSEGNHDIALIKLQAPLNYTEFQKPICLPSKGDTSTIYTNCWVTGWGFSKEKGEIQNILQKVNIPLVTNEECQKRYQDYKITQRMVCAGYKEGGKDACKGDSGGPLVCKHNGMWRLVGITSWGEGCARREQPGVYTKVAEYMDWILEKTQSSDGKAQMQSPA
Chain of human plasma kallikrein (P03952 20-390 partner limits assumed): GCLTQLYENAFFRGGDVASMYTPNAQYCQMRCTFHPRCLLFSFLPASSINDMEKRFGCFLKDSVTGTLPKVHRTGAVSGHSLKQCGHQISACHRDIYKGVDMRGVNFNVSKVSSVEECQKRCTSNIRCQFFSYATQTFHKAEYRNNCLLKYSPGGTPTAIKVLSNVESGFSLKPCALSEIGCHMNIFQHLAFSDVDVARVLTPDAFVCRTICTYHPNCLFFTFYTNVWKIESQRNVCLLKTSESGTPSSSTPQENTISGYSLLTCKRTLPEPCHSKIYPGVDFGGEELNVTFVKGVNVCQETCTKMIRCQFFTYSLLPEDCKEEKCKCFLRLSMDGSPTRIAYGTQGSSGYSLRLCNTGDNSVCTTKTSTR
The Kallikrein FLINT assay was used with the following Z-Gly-Pro-Arg-AMC assay buffer: 50 mM Tris, pH 7.5, 100 mM NaCl, 5 mM CaCl2, 0.1 mg/mL BSA, 0.03% CHAPS. Assay buffer was prepared by mixing all ingredients fresh. 2× Z-Gly-Pro-Arg-AMC peptide substrate was prepared by diluting 10 mM stock into 1× assay buffer for a 100 μM working concentration (50 μM final concentration).
Test compound(s) were run in an 11-point, 3-fold serial dilution with a final top compound concentration of 1 μM. Final DMSO in assay was 2%. Plasma kallikrein was pre-incubated for 30-minute with compound and then 50 μM substrate was added to initiate the reaction. The assay was run with either end point (EP) reads at 30 min or kinetic (KIN) reads at 5 min intervals over 30 minutes.
Percent inhibition (IC50) curves were generated per compound tested, and data was analyzed using a 4-parameter logistic fit using GeneData Screener. The relative fluorescence unit (RFU) values were normalized to percent inhibition using the following equation: % inhibition=((HC−LC)−(compound−LC)/(HC−LC))*100
An 11-point dose response curve for the test compound(s) was generated using GENDATA to determine IC50 value based on the following equation: Y=Bottom+(Top−Bottom)/(1+10^((log IC50−X)*HillSlope))
Results listed in columns with […] designation were measured using endpoint reads where a single fluorescence reading was measured for each well at a 30 min timepoint.

As usually defined, the IC50 is the midpoint of a concentration-inhibition curve. Regarding `O=C(C1CC1CC(c1ccc(-c2c(-n3cnnn3)ccc(Cl)c2F)c[n+]1[O-])n1cc(-c2ccncc2)cn1)N1CCC(c2ccccc2)C1` (centres unmarked) [Example P253], the IC50 amounted to 0.159 µM.
In the case of `O=C1CCCN1CC(c1ccc(-c2c(-n3cnnn3)ccc(Cl)c2F)c[n+]1[O-])n1cc(-c2cc[n+]([O-])c(C(F)F)c2)cn1` (single isomer, unassigned) [Example P362] it was 0.0383 µM; in that of `O=C(NC1CC1)c1ccc(-c2cnn(C(CC3CCCCO3)c3ccc(-c4c(-n5cnnn5)ccc(Cl)c4F)c[n+]3[O-])c2)cc1` (single isomer, unassigned) [Example P143], 0.0581 µM.
For `COC(=O)Nc1ccc(-c2cnn(C(Cc3ccc(Cl)cc3)c3ccc(-c4c(-n5cnnn5)ccc(Cl)c4F)c[n+]3[O-])c2)cc1` (single isomer, unassigned) [Example P159] the value was 0.215 µM; for `COC(=O)Nc1ccc(-c2cnn(C(CC3CCCCO3)c3ccc(-c4c(-n5cnnn5)ccc(Cl)c4F)c[n+]3[O-])c2)cc1` (centres unmarked) [Example P220], 0.0139 µM.
In the case of `[O-][n+]1cc(-c2c(-n3cnnn3)ccc(Cl)c2F)ccc1[C@@H](CCOC(F)F)n1cc(-c2cnn(C(F)F)n2)cn1` [Example P674] it was 0.0549 µM.
As for `O=C(O)c1ccc(-c2cnn(C(CC3CC3)c3ccc(-c4c(C(F)F)ccc(Cl)c4F)c[n+]3[O-])c2)cc1` (single isomer, unassigned) [Example Q13], the IC50 came out at 0.0971 µM.
In the case of `[O-][n+]1cc(-c2c(-n3cc(Cl)nn3)ccc(Cl)c2F)ccc1[C@@H](Cn1cc(F)cn1)n1cc(-c2c(F)cnn2C(F)F)cn1` [Example P631] it was 0.0662 µM.
For `CS(=O)(=O)Nc1ccc(-c2cnn(C(Cc3ccccc3)c3ccc(-c4c(-n5cnnn5)ccc(Cl)c4F)c[n+]3[O-])c2)cc1` (centres unmarked) [Example P76] the value was 0.0042 µM; for `NC(=O)c1ccc(-c2cnn(C(Cc3ccn(C(F)F)n3)c3ccc(-c4c(-n5cc(Cl)nn5)ccc(Cl)c4F)c[n+]3[O-])c2)cc1` (single isomer, unassigned) [Example P911], 0.0002 µM.
For `O=C1OCCN1CC(c1ccc(-c2c(-n3cnnn3)ccc(Cl)c2F)c[n+]1[O-])n1cc(-c2ccnc(C(F)(F)F)c2)cn1` (single isomer, unassigned) [Example P430] the value was 0.038 µM; for `COCC(=O)Nc1ccc(-c2cnn(C(CC3CC3)c3ccc(-c4c(-n5cnnn5)ccc(Cl)c4F)c[n+]3[O-])c2)cc1` (centres unmarked) [Example P131], 0.192 µM; for `O=C(O)c1ccc(-c2cnn(C(Cc3ccc(Oc4ccccc4)cc3)c3ccc(-c4cc(Cl)ccc4-n4cnnn4)c[n+]3[O-])c2)cc1` (centres unmarked) [Example P147], 0.0122 µM.
In the case of `[O-][n+]1cc(-c2c(-n3cnnn3)ccc(Cl)c2F)ccc1C(Cc1ccc(C(F)(F)F)nc1)n1cc(-c2ccnn2C(F)F)cn1` (centres unmarked) [Example P753], the IC50 stood at 0.0543 µM.
For `COC(=O)Nc1ccc(-c2cnn(C(Cc3cccc(OC)c3)c3ccc(-c4c(-n5cnnn5)ccc(Cl)c4F)c[n+]3[O-])c2)cc1` (single isomer, unassigned) [Example P207] the value was 0.0029 µM; for `CCCC(c1ccc(-c2c(-n3cnnn3)ccc(Cl)c2F)c[n+]1[O-])n1cc(-c2ccc(NC(=O)OC)cc2)cn1` (centres unmarked) [Example P156], 0.0867 µM.
For `O=C(O)C1CCCN(C(=O)C2CC2CC(c2ccc(-c3c(-n4cnnn4)ccc(Cl)c3F)c[n+]2[O-])n2cc(-c3ccccc3)cn2)C1` (centres unmarked) [Example P223] the value was 0.791 µM; for `NC(=O)c1ccc(-c2cnn(C(Cc3ccn(C(F)F)n3)c3ccc(-c4c(-n5cc(Cl)nn5)ccc(Cl)c4F)c[n+]3[O-])c2)cc1F` (centres unmarked) [Example P894], 0.0025 µM.
For `N#Cc1cc(-c2cnn(C(CN3CCCC3=O)c3ccc(-c4c(-n5cnnn5)ccc(Cl)c4F)c[n+]3[O-])c2)cc[n+]1[O-]` (centres unmarked) [Example P466] the value was 0.231 µM.
For `NC(=O)C1CC1CC(c1ccc(-c2c(-n3cnnn3)ccc(Cl)c2F)c[n+]1[O-])n1cc(-c2cc[n+]([O-])cc2)cn1` (single isomer, unassigned) [Example P283], the IC50 was 0.0745 µM.
For `[O-][n+]1cc(-c2c(-n3cnnn3)ccc(Cl)c2F)ccc1C(Cn1nccc1C(F)(F)F)n1cc(-c2ccnc(F)c2)cn1` (centres unmarked) [Example P346] the value was 0.0118 µM.
For `COC(=O)Nc1ccc(-c2cnn(C(CC3CC3C(=O)N3CCCC(c4ccccc4)C3)c3ccc(-c4c(-n5cnnn5)ccc(Cl)c4F)c[n+]3[O-])c2)cc1` (centres unmarked) [Example P222] the value was 0.189 µM.
For `NC(=O)c1ccc(-c2cnn(C(CC3CC3C(=O)N3CCCCC3)c3ccc(-c4c(C(F)F)ccc(Cl)c4F)c[n+]3[O-])c2)cc1` (centres unmarked) [Example Q37] the value was 0.0991 µM.
Consider `O=C1CCCN1CC(c1ccc(-c2c(-n3cnnn3)ccc(Cl)c2F)c[n+]1[O-])n1cc(-c2ccncc2)cn1` (centres unmarked) [Example P242], for which the IC50 worked out at 0.0039 µM.
Take `Cn1ncc(-c2cnn(C(CCOC(F)F)c3ccc(-c4c(-n5cnnn5)ccc(Cl)c4F)c[n+]3[O-])c2)cc1=O` (centres unmarked) [Example P415]: the IC50 amounted to 0.184 µM.
For `CN1CCN(CC(c2ccc(-c3c(-n4cnnn4)ccc(Cl)c3F)c[n+]2[O-])n2cc(-c3ccnc(C(F)(F)F)c3)cn2)C1=O` (centres unmarked) [Example P432] the value was 0.0028 µM; for `NC(=O)C1CC1CC(c1ccc(-c2cc(Cl)ccc2-n2cnnn2)c[n+]1[O-])n1cc(-c2ccc(C(=O)O)cc2)cn1` (centres unmarked) [Example P113], 0.291 µM.
In the case of `[O-][n+]1ccc(-c2cnn(C(CC3CC3)c3ccc(-c4c(-n5cnnn5)ccc(Cl)c4F)c[n+]3[O-])c2)cn1` (centres unmarked) [Example P398] it was 0.73 µM.
In the case of `[O-][n+]1ccc(-c2cnn(C(Cc3ccc(Cl)cc3)c3ccc(-c4cc(Cl)ccc4-n4cnnn4)c[n+]3[O-])c2)cc1` (centres unmarked) [Example P172] it was 0.0162 µM; in that of `[O-][n+]1cc(-c2c(-n3cc(Cl)nn3)ccc(Cl)c2F)ccc1[C@@H](CCOC(F)F)n1cc(-c2nncn2C(F)F)cn1` [Example P692], 0.334 µM.
On to `Cc1cc(-c2cnn(C(CCOC(F)F)c3ccc(-c4c(-n5cnnn5)ccc(Cl)c4F)c[n+]3[O-])c2)ccn1` (centres unmarked) [Example P307], for which the IC50 came to 0.0077 µM.
For `Cc1nccn1-c1cnn(C(CCOC(F)F)c2ccc(-c3c(-n4cc(OC(F)F)nn4)ccc(Cl)c3F)c[n+]2[O-])c1` (single isomer, unassigned) [Example P826] the value was 0.303 µM; for `CC(C)n1nncc1-c1cnn(C(CCOC(F)F)c2ccc(-c3c(-n4cc(C(F)(F)F)nn4)ccc(Cl)c3F)c[n+]2[O-])c1` (centres unmarked) [Example P803], about 0.093 µM.
Regarding `O=C(O)c1ccc(-c2cnn(C(CC3OCCc4ccccc43)c3ccc(-c4cc(Cl)ccc4-n4cnnn4)c[n+]3[O-])c2)cc1` (centres unmarked) [Example P128], the IC50 turned out to be 0.475 µM.
For `Nc1ccc(-c2cnn(C(CC3CC3)c3ccc(-c4c(-n5cnnn5)ccc(Cl)c4F)c[n+]3[O-])c2)c(Cl)n1` (single isomer, unassigned) [Example P178] the value was 0.0216 µM; for `Cc1nc(N)ccc1-c1cnn(C(CCOC(F)F)c2ccc(-c3c(-n4cnnn4)ccc(Cl)c3F)c[n+]2[O-])c1` (centres unmarked) [Example P342], 0.0043 µM; for `COCC[C@H](c1ccc(-c2c(-n3cnnn3)ccc(Cl)c2F)c[n+]1[O-])n1cc(-c2ccn(C(F)F)n2)cn1` [Example P560], 0.102 µM.
In the case of `[O-][n+]1cc(-c2c(-n3cnnn3)ccc(Cl)c2F)ccc1C(CC1CC1)n1cc(-c2ccnn2C(F)F)cn1` (centres unmarked) [Example P542] it was 0.302 µM.
In the case of `O=C(O)c1ccc(-c2cnn(C(CN3CCCC3=O)c3ccc(-c4c(C(F)F)ccc(Cl)c4F)c[n+]3[O-])c2)cc1` (single isomer, unassigned) [Example Q15] it was 0.382 µM; in that of `O=c1ccccn1CC(c1ccc(-c2c(-n3cnnn3)ccc(Cl)c2F)c[n+]1[O-])n1cc(-c2ccnc(C(F)(F)F)c2)cn1` (centres unmarked) [Example P358], 0.0819 µM.
In the case of `COc1cc(C(CC2CC2)n2cc(-c3ccc(C(N)=O)c(F)c3)cn2)[n+]([O-])cc1-c1cc(Cl)ccc1C#N` (centres unmarked) [Example Q59], the IC50 came to 0.0252 µM.
For `COc1ccc(CC(c2ccc(-c3c(-n4cnnn4)ccc(Cl)c3F)c[n+]2[O-])n2cc(-c3ccn(C)c(=O)c3)cn2)cc1` (centres unmarked) [Example P134] the value was 0.0071 µM.
For `O=C(O)c1cc(-c2cnn(C(CC3CC3)c3ccc(-c4c(C(F)F)ccc(Cl)c4F)c[n+]3[O-])c2)c[nH]1` (centres unmarked) [Example Q24] the value was 0.578 µM; for `[O-][n+]1cc(-c2c(-n3cnnn3)ccc(Cl)c2F)ccc1C(Cn1cc(-c2ccccn2)cn1)n1cc(-c2ccccn2)cn1` (single isomer, unassigned) [Example P515], 0.144 µM.
As to `[O-][n+]1cc(-c2c(-n3cnnn3)ccc(Cl)c2F)ccc1C(Cc1ccc(F)cc1)n1cc(-c2ccncc2)cn1` (single isomer, unassigned) [Example P236], the IC50 was found to be 0.158 µM.
For `[O-][n+]1cc(-c2c(-n3cc(Cl)nn3)ccc(Cl)c2F)ccc1C(Cn1cccn1)n1cc(-c2cn(C(F)F)nn2)cn1` (single isomer, unassigned) [Example P664] the value was 0.38 µM; for `COCC[C@H](c1ccc(-c2c(-n3cnnn3)ccc(Cl)c2F)c[n+]1[O-])n1cc(-c2ccnn2C(F)F)cn1` [Example P561], 0.0783 µM.
